Literature values in patent US12697315B2, “Treatment for interstitial lung disease” (United Therapeutics Corporation, priority 2020, dated 2026).
Read-outs that look alike come from different tables or passages of the source.

Tested on: IPF
Conditions: 52 weeks, cited from earlier work

Structure (SMILES)	FVC, placebo corrected, rate of decline (pirfenidone)	FVC % predicted, placebo corrected, rate of decline	FVC, placebo corrected, rate of decline
Cc1ccc(=O)n(-c2ccccc2)c1 [Pirfenidone, pirfenidone]	153 to 193 mL		
COC(=O)c1ccc2c(c1)NC(=O)/C2=C(\Nc1ccc(N(C)C(=O)CN2CCN(C)CC2)cc1)c1ccccc1 [Nintedanib, nintedanib]		3.2 % predicted	~ 109 mL
